Source: patent US20260049092A1, “ANTIBACTERIAL COMPOUNDS” (Blacksmith Medicines, Inc., priority 2022, published 2026)
Converted amounts (≈) assume the structure as drawn. Read-outs that look alike come from different tables or passages of the source.

Experiments:
Assay in all cases: Bacterial susceptibility testing (MIC, broth microdilution)
Assay type in all cases: cell-based
K. pneumoniae ATCC13883 = conditions: for MIC: Klebsiella pneumoniae
Method: (§1) Minimal inhibitory concentrations (MIC) were determined by the broth microdilution method in accordance with the Clinical and Laboratory Standards Institute (CLSI) guidelines. In brief, organism suspensions were adjusted to a final inoculum between 3×10^5 and 7×10^5 colony-forming units (CFU)/mL. Drug dilutions and inocula were made in sterile, cation adjusted Mueller-Hinton Broth (Beckton Dickinson). In wells, an inoculum volume of 100 μL was mixed to 2 μL of DMSO with 2-fold serial dilutions of drug. All inoculated microdilution trays were incubated in ambient air at 35° C. for 18-24 h. Following incubation, the lowest concentration of the drug that prevented visible growth (OD600 nm<0.05) was recorded as the MIC. Performance of the assay was monitored by the use of laboratory quality -control strains and compounds with defined MIC spectrum, in accordance with CLSI guidelines.

E. coli ATCC25922 = conditions: for MIC: Escherichia coli
Method: as §1

P. aeruginosa ATCC27853 = conditions: for MIC: Pseudomonas aeruginosa
Method: as §1

P. aeruginosa PAO1 = conditions: Pseudomonas aeruginosa
Method: as §1

[1] = ATCC13883, broth microdilution, cation adjusted Mueller-Hinton Broth, 35° C., 18-24 h, read-out: K. pneumoniae ATCC13883 MIC
[2] = ATCC25922, broth microdilution, cation adjusted Mueller-Hinton Broth, 35° C., 18-24 h, read-out: E. coli ATCC25922 MIC
[3] = ATCC27853, broth microdilution, cation adjusted Mueller-Hinton Broth, 35° C., 18-24 h, read-out: P. aeruginosa ATCC27853 MIC
[4] = PAO1, broth microdilution, cation adjusted Mueller-Hinton Broth, 35° C., 18-24 h, read-out: P. aeruginosa PAO1 MIC
[5] = ATCC13883, read-out: K. pneumoniae ATCC13883 MIC
[6] = ATCC25922, read-out: E. coli ATCC25922 MIC
[7] = ATCC27853, read-out: P. aeruginosa ATCC27853 MIC
[8] = PAO1, read-out: P. aeruginosa PAO1 MIC
[9] = broth microdilution, cation adjusted Mueller-Hinton Broth, 35° C., 18-24 h

Structure (SMILES) | MIC (K. pneumoniae ATCC13883; [1]) | MIC (E. coli ATCC25922; [2]) | MIC (P. aeruginosa ATCC27853; [3]) | MIC (P. aeruginosa PAO1; [4]) | MIC (K. pneumoniae ATCC13883; [5]) | MIC (E. coli ATCC25922; [6]) | MIC (P. aeruginosa ATCC27853; [7]) | MIC (P. aeruginosa PAO1; [8]) | K. pneumoniae ATCC13883 MIC (K. pneumoniae ATCC13883; [9]) | E. coli ATCC25922 MIC (E. coli ATCC25922; [9]) | P. aeruginosa ATCC27853 MIC (P. aeruginosa ATCC27853; [9])
C[C@H](O)c1nccn1[C@@H](C#Cc1ccc(-c2ccc(O[C@@H]3CCOC[C@H]3O)cc2)cc1)CO [Compound 72, (3R,4R)-4-((4′-((S)-4-hydroxy-3-(2-((S)-1-hydroxyethyl)-1H-imidazol-1-yl)but-1-yn-1-yl)-[1,1′-biphenyl]-4-yl)oxy)tetrahydro-2H-pyran-3-ol] | 2 µg/mL (≈ 4.46 µM) | 1 µg/mL (≈ 2.23 µM) | 8 µg/mL (≈ 17.8 µM) | 2 µg/mL (≈ 4.46 µM) |  |  |  |  |  |  | 
C[C@H](O)c1nccn1[C@@H](C#Cc1ccc(-c2ccc(OC3CN(C(=O)N(C)C)C3)cc2)cc1)CO [Compound 95, 3-((4′-((S)-4-hydroxy-3-(2-((S)-1-hydroxyethyl)-1H-imidazol-1-yl)but-1-yn-1-yl)-[1,1′-biphenyl]-4-yl)oxy)-N,N-dimethylazetidine-1-carboxamide] |  |  |  |  | 2 µg/mL (≈ 4.21 µM) | 0.5 µg/mL (≈ 1.05 µM) | 4 µg/mL (≈ 8.43 µM) | 2 µg/mL (≈ 4.21 µM) |  |  | 
C[C@H](O)c1ccc(-c2ccc(C#C[C@@H](CO)n3ccnc3[C@H](C)O)cc2)cc1 (single isomer, unassigned) [Compound 134] | 8 µg/mL (≈ 21.3 µM) | 1 µg/mL (≈ 2.66 µM) | 8 µg/mL (≈ 21.3 µM) | 4 µg/mL (≈ 10.6 µM) |  |  |  |  |  |  | 
C[C@H](O)c1nccn1[C@@H](C#Cc1ccc(-c2ccc(OC3COC[C@@H]3O)c(F)c2)cc1)CO (single isomer, unassigned) [Compound 7] | 4 µg/mL (≈ 8.84 µM) | 1 µg/mL (≈ 2.21 µM) | 4 µg/mL (≈ 8.84 µM) | 2 µg/mL (≈ 4.42 µM) |  |  |  |  |  |  | 
CC1C(Oc2ccc(-c3ccc(C#C[C@@H](CO)n4ccnc4[C@H](C)O)cc3)cc2)CN1CC#N (mixture of isomers) [Compound 99] | 2 µg/mL (≈ 4.38 µM) | 1 µg/mL (≈ 2.19 µM) | 8 µg/mL (≈ 17.5 µM) | 4 µg/mL (≈ 8.76 µM) |  |  |  |  |  |  | 
C[C@H](O)c1nccn1[C@@H](C#Cc1ccc(-c2ccc(O[C@H]3C[C@@H](C#N)C3)cc2)cc1)CO (racemic) [Compound 129, (rac-cis)-3-((4′-((S)-4-hydroxy-3-(2-((S)-1-hydroxyethyl)-1H-imidazol-1-yl)but-1-yn-1-yl)-[1,1′-biphenyl]-4-yl)oxy)cyclobutane-1-carbonitrile] | 1 µg/mL (≈ 2.34 µM) | 0.5 µg/mL (≈ 1.17 µM) | 4 µg/mL (≈ 9.36 µM) | 2 µg/mL (≈ 4.68 µM) |  |  |  |  |  |  | 
C[C@H](O)c1nccn1[C@@H](C#Cc1ccc(-c2ccc(OC3CN(CC#N)C3)cc2F)cc1)CO (single isomer, unassigned) [Compound 63] | 2 µg/mL (≈ 4.34 µM) | 0.5 µg/mL (≈ 1.09 µM) | 4 µg/mL (≈ 8.69 µM) | 2 µg/mL (≈ 4.34 µM) |  |  |  |  |  |  | 
CC(=O)N[C@H]1C[C@H](c2ccc(-c3ccc(C#C[C@@H](CO)n4ccnc4[C@H](C)O)cc3)cc2)C1 (racemic) [Compound 127, N-((rac-trans)-3-(4′-((S)-4-hydroxy-3-(2-((S)-1-hydroxyethyl)-1H-imidazol-1-yl)but-1-yn-1-yl)-[1,1′-biphenyl]-4-yl)cyclobutyl)acetamide] | 1 µg/mL (≈ 2.25 µM) | 0.25 µg/mL (≈ 0.564 µM) | 1 µg/mL (≈ 2.25 µM) | 1 µg/mL (≈ 2.25 µM) |  |  |  |  |  |  | 
C[C@H](O)c1nccn1[C@@H](C#Cc1ccc(-c2ccc(OC3CC4(C3)CN(CC#N)C4)cc2)cc1)CO (single isomer, unassigned) [Compound 67] | 4 µg/mL (≈ 8.29 µM) | 0.5 µg/mL (≈ 1.04 µM) | 4 µg/mL (≈ 8.29 µM) | 2 µg/mL (≈ 4.14 µM) |  |  |  |  |  |  | 
C[C@H](O)c1nccn1[C@@H](C#Cc1ccc(-c2ccc(NC[C@@H]3COC[C@H]3O)cc2)cc1)CO (racemic) [Compound 69, (rac-trans)-4-(((4′-((S)-4-hydroxy-3-(2-((S)-1-hydroxyethyl)-1H-imidazol-1-yl)but-1-yn-1-yl)-[1,1′-biphenyl]-4-yl)amino)methyl)tetrahydrofuran-3-ol] | 2 µg/mL (≈ 4.47 µM) | 1 µg/mL (≈ 2.23 µM) | 2 µg/mL (≈ 4.47 µM) | 1 µg/mL (≈ 2.23 µM) |  |  |  |  |  |  | 
C[C@H](O)c1nccn1[C@@H](C#Cc1ccc(-c2ccc(C3COC3)cc2)cc1)CO [Compound 128, (S)-2-(2-((S)-1-hydroxyethyl)-1H-imidazol-1-yl)-4-(4′-(oxetan-3-yl)-[1,1′-biphenyl]-4-yl)but-3-yn-1-ol] | 1 µg/mL (≈ 2.57 µM) | 0.25 µg/mL (≈ 0.644 µM) | 4 µg/mL (≈ 10.3 µM) | 2 µg/mL (≈ 5.15 µM) |  |  |  |  |  |  | 
C[C@H](O)c1nccn1[C@@H](C#Cc1ccc(-c2ccc(O[C@H]3CCOC[C@@H]3O)cc2)cc1)CO [Compound 73, (3S,4S)-4-((4′-((S)-4-hydroxy-3-(2-((S)-1-hydroxyethyl)-1H-imidazol-1-yl)but-1-yn-1-yl)-[1,1′-biphenyl]-4-yl)oxy)tetrahydro-2H-pyran-3-ol] | 2 µg/mL (≈ 4.46 µM) | 2 µg/mL (≈ 4.46 µM) | 8 µg/mL (≈ 17.8 µM) | 2 µg/mL (≈ 4.46 µM) |  |  |  |  |  |  | 
C[C@H](O)c1nccn1[C@@H](C#Cc1ccc(-c2ccc(OC3CN(C(=O)N4CCOCC4)C3)cc2)cc1)CO [Compound 96, (3-((4′-((S)-4-hydroxy-3-(2-((S)-1-hydroxyethyl)-1H-imidazol-1-yl)but-1-yn-1-yl)-[1,1′-biphenyl]-4-yl)oxy)azetidin-1-yl)(morpholino)methanone] |  |  |  |  | 8 µg/mL (≈ 15.5 µM) | 2 µg/mL (≈ 3.87 µM) | 8 µg/mL (≈ 15.5 µM) | 8 µg/mL (≈ 15.5 µM) |  |  | 
C[C@H](O)c1nccn1[C@@H](C#Cc1ccc(-c2ccn(C)c(=O)c2)cc1)CO [Compound 112, 4-(4-((S)-4-hydroxy-3-(2-((S)-1-hydroxyethyl)-1H-imidazol-1-yl)but-1-yn-1-yl)phenyl)-1-methylpyridin-2(1H)-one] | > 32 µg/mL | > 32 µg/mL | > 32 µg/mL | > 32 µg/mL |  |  |  |  |  |  | 
C[C@H](O)c1nccn1[C@@H](C#Cc1ccc(-c2ccc(O[C@H]3C[C@@H](NS(C)(=O)=O)C3)cc2)cc1)CO (racemic) [Compound 132, N-((rac-cis)-3-((4′-((S)-4-hydroxy-3-(2-((S)-1-hydroxyethyl)-1H-imidazol-1-yl)but-1-yn-1-yl)-[1,1′-biphenyl]-4-yl)oxy)cyclobutyl)methane-sulfonamide] | > 32 µg/mL | 2 µg/mL (≈ 4.04 µM) | 4 µg/mL (≈ 8.07 µM) | 4 µg/mL (≈ 8.07 µM) |  |  |  |  |  |  | 
C[C@H](O)c1nccn1[C@@H](C#Cc1ccc(-c2ccc(OC3(C)COC3)cc2)cc1)CO [Compound 136, (S)-2-(2-((S)-1-hydroxyethyl)-1H-imidazol-1-yl)-4-(4′-((3-methyloxetan-3-yl)oxy)-[1,1′-biphenyl]-4-yl)but-3-yn-1-ol] | 0.5 µg/mL (≈ 1.19 µM) | 0.25 µg/mL (≈ 0.597 µM) | 4 µg/mL (≈ 9.56 µM) | 2 µg/mL (≈ 4.78 µM) |  |  |  |  |  |  | 
C[C@H](O)c1nccn1[C@@H](C#Cc1ccc(-c2ccc(CO[C@H]3COC[C@@H]3O)c(F)c2)cc1)CO (single isomer, unassigned) [Compound 46] |  |  |  |  |  |  |  |  | 2 µg/mL | 1 µg/mL | 4 µg/mL
C[C@H](O)c1nccn1[C@@H](C#Cc1ccc(-c2ccc(NC3CC3)cc2)cc1)CO [Compound 81, (S)-4-(4′-(cyclopropylamino)-[1,1′-biphenyl]-4-yl)-2-(2-((S)-1-hydroxyethyl)-1H-imidazol-1-yl)but-3-yn-1-ol] |  |  |  |  | 0.5 µg/mL (≈ 1.29 µM) | 0.25 µg/mL (≈ 0.645 µM) | 8 µg/mL (≈ 20.6 µM) | 2 µg/mL (≈ 5.16 µM) |  |  | 
CNC(=O)[C@H]1C[C@H](Oc2ccc(-c3ccc(C#C[C@@H](CO)n4ccnc4[C@H](C)O)cc3)cc2)C1 (racemic) [Compound 122, (rac-trans)-3-((4′-((S)-4-hydroxy-3-(2-((S)-1-hydroxyethyl)-1H-imidazol-1-yl)but-1-yn-1-yl)-[1,1′-biphenyl]-4-yl)oxy)-N-methylcyclobutane-1-carboxamide] | 1 µg/mL (≈ 2.18 µM) | 0.5 µg/mL (≈ 1.09 µM) | 2 µg/mL (≈ 4.35 µM) | 2 µg/mL (≈ 4.35 µM) |  |  |  |  |  |  | 
CC(=O)N1CC(c2ccc(-c3ccc(C#C[C@@H](CO)n4ccnc4[C@H](C)O)cc3)cc2)C1 [Compound 139, 1-(3-(4′-((S)-4-hydroxy-3-(2-((S)-1-hydroxyethyl)-1H-imidazol-1-yl)but-1-yn-1-yl)-[1,1′-biphenyl]-4-yl)azetidin-1-yl)ethan-1-one] | 1 µg/mL (≈ 2.33 µM) | 0.5 µg/mL (≈ 1.16 µM) | 4 µg/mL (≈ 9.31 µM) | 1 µg/mL (≈ 2.33 µM) |  |  |  |  |  |  | 
CC(=O)N[C@H]1C[C@@H](c2ccc(-c3ccc(C#C[C@@H](CO)n4ccnc4[C@H](C)O)cc3)cc2)C1 (racemic) [Compound 135, N-((rac-cis)-3-(4′-((S)-4-hydroxy-3-(2-((S)-1-hydroxyethyl)-1H-imidazol-1-yl)but-1-yn-1-yl)-[1,1′-biphenyl]-4-yl)cyclobutyl)acetamide] | 2 µg/mL (≈ 4.51 µM) | 0.5 µg/mL (≈ 1.13 µM) | 2 µg/mL (≈ 4.51 µM) | 2 µg/mL (≈ 4.51 µM) |  |  |  |  |  |  | 
CC(=O)N1CC(Oc2ccc(-c3ccc(C#C[C@@H](CO)n4ccnc4[C@H](C)O)cc3)cc2)C1 [Compound 88, 1-(3-((4′-((S)-4-hydroxy-3-(2-((S)-1-hydroxyethyl)-1H-imidazol-1-yl)but-1-yn-1-yl)-[1,1′-biphenyl]-4-yl)oxy)azetidin-1-yl)ethan-1-one] |  |  |  |  | 2 µg/mL (≈ 4.49 µM) | 1 µg/mL (≈ 2.24 µM) | 4 µg/mL (≈ 8.98 µM) | 2 µg/mL (≈ 4.49 µM) |  |  | 
